{"source": "paper PMC7616174", "about": "“Development of Novel 4-Arylpyridin-2-one and 6-Arylpyrimidin-4-one Positive Allosteric Modulators of the M1 Muscarinic Acetylcholine Receptor” (ChemMedChem, 2020)", "key": {"hM1 mAChR [1]": {"target": "T1, hM1 mAChR (Homo sapiens, UniProt P11229)", "T1 construct": "expressed in transfected cells", "T1 sequence (P11229 1-460)": "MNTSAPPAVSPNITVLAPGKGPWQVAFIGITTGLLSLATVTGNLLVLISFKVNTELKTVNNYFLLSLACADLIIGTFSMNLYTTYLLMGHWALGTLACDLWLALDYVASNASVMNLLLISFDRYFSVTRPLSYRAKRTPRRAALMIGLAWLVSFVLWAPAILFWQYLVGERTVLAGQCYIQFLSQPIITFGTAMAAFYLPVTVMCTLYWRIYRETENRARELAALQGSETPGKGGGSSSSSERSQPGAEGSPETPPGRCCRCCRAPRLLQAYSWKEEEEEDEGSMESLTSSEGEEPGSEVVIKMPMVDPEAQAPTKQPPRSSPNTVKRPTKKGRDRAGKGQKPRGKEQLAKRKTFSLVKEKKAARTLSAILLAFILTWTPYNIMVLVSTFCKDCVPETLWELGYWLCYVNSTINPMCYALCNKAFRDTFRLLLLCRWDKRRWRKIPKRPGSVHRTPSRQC", "assay": "IP1 accumulation assay (ACh concentration-response curves in absence or presence of modulator)", "assay_type": "cell-based", "experimental": "Functional activity of the synthesized analogues as racemic mixtures was investigated in IP1 accumulation assays at the M1 mAChR, as described previously.[13–14] ACh concentration-response curves were generated in the absence or presence of a 1 and 10 μM concentration of each modulator. The change in baseline activity (Δbaseline) is an approximate measure of direct allosteric agonism (τB), whereas the pEC50 shift (ΔpEC50) is an approximate measure of functional cooperativity (αβ) of each modulator with ACh in the investigated signalling pathway. We aimed to identify modulators with various degrees of allosteric agonism and modulatory effects on ACh response, as these could generate distinct in vivo outcomes for applications in different conditions in the CNS or gastrointestinal (GI) tract.[[10g,h,j]]\n(§1) The compounds were then fully characterised in two functional assays (Figure 2C and D); the Gq-coupled IP1 accumulation assay (Figure S2), which was used for the initial screening of the compounds, and a β-arrestin 2 recruitment assay (Figure S3). The operational efficacy (τB) values for the modulators and their functional cooperativity estimates with ACh (logαβACh) at both signalling pathways were estimated by applying an operational model of allosterism and agonism to the data [Eq. (3)],[16] and are listed in Table 5.\nFlpIn CHO cells stably expressing the hM1 mAChR were seeded at 25000 per well of 96-well transparent cell culture plates and grown overnight. […] Cells were then stimulated with increasing concentration of ACh in the absence or presence of increasing concentrations of each modulator for 1 h at 37°C. […] Seven μL of cell lysates were transferred into wells of 384-well Proxiplates (Perki-nElmer Life Sciences), and IP1 levels were measured using the IP-One assay kit (Cisbio, Codolet, France). […] The signal was expressed as the HTRF ratio, interpolated from the standard curve, and normalized to the maximum response to ACh.\nChanges in both baseline and pEC50 were quantified by subtracting the estimates at each M1 PAM concentrations with the control values. Propagation of the error on baseline and potency values were determined as follows [Eq. (1)]: σΔ=σPAM2+σcont.2 where σΔ is the standard error of the mean (SEM) for the change in value, and σPAM and σcont. are the SEM from the three-parameter logistic equation analysis in presence or absence of M1 PAM, respectively.\n(§2) Functional interaction studies between ACh and allosteric modulators in IP1 and β-arrestin 2 recruitment assays were analysed according to a three-parameter logistic equation or the following operational model of allosterism and agonism [Eq. (3)].[16] E=Basal+(Em−Basal)([A](KB+αβ[B])+τB[B]EC50)^n/EC50n(KB+[B])^n+([A](KB+αβ[B])+τB[B]EC50)^n where Em is the maximal possible system response, and Basal is the response in the absence of agonist. [A] and [B] are concentrations of orthosteric and allosteric ligands, respectively. KB is the equilibrium dissociation constant of allosteric ligand, and EC50 is the concentration of orthosteric agonist required to achieve half maximal response. α and β represent the magnitude of the allosteric effects on orthosteric ligand affinity and efficacy, respectively; τB is the efficacy of allosteric ligand, and n is the slope factor of the transducer function that links occupancy to response."}, "hM1 mAChR [2]": {"target": "T1, hM1 mAChR", "assay": "Whole-cell [3H]NMS equilibrium competition radioligand binding", "details": "[3H]NMS binding", "experimental": "To determine the affinity (pKB) of the allosteric modulators for the allosteric site, and their binding cooperativity with ACh (log αACh) at the M1 mAChR, whole cell equilibrium competition binding studies were performed, using [^3H]NMS to label the orthosteric site.\nFlpIn Chinese hamster ovary (CHO) cells stably expressing the hM1 mAChR were grown in Dulbecco’s modified Eagle’s medium (DMEM) (Invitrogen, Carlsbad, CA) supplemented with 5% foetal bovine serum (FBS) (Thermo-Trace, Melbourne, Australia) and 300 μg/mL G418 (Invitrogen, Carlsbad, CA). The cells were plated at 50,000 cells per well of 96-well white clear bottom plates (Greiner Bio-one, Kremsmünster, Austria), and were grown overnight. The following day, cells were washed twice with Phosphate Buffered Saline (PBS), and incubated with increasing concentrations of ACh (Sigma) in the absence or presence of increasing concentrations of each modulator and 0.2 nM [^3H]NMS (PerkinElmer Life Sciences) in binding buffer (20 mM HEPES, 100 mM NaCl, 10 mM MgCl2, pH 7.4) for 5 h at room temperature. Nonspecific binding was determined using atropine at the final concentration of 10 μM. The assays were terminated by rapid removal of the unbound radioligand followed by two washes with 100 μL/well ice-cold 0.9% NaCl buffer. Radioactivity was determined by addition of 100 μL/well Ultima gold (PerkinElmer Life Sciences) and counting in a MicroBeta plate reader (PerkinElmer Life Sciences).\nBinding interaction studies with allosteric ligands were fitted to the following allosteric ternary complex model [Eq. (2)][15] Y=Bmax|A|/[Λ]+[KAKB/α^′[B]+KB][1+[I]/K1+[B]/KB+α[I][B]/KIKB] where Bmax is the total number of receptors, [A], [B] and [I] denote the concentrations of radioligand, allosteric modulator, and orthosteric ligand, respectively; KA, KB and KI are their respective equilibrium dissociation constants. α’ and α are the affinity cooperativity factors between the allosteric ligand and radioligand or the allosteric modulator and ACh, respectively. Values of α or α’ > 1 denote positive cooperativity, values < 1 but > 0 denote negative cooperativity, and a value of 1 indicates neutral coopera-tivity."}, "M1 mAChR": {"target": "T2, M1 mAChR (Homo sapiens, UniProt P11229)", "T2 construct": "expressed in transfected cells; host or cells: parental FlpIn CHO cells (transient, PEI)", "T2 sequence (P11229 1-460)": "T1 sequence (P11229 1-460)", "assay": "β-arrestin 2 recruitment assay (BRET)", "assay_type": "cell-based", "source_text": "as §1\nParental FlpIn CHO cells were plated at 30000 cells/well of 96-well white Culture plates (Perkin Elmer Life Sciences) and transiently transfected with 10 ng/well of M1 Renilla luciferase (Rluc)-8 and 40 ng/well of YFP-β-arrestin 2 using linear polyethyleneimine (PEI/DNA ratio 6:1) diluted in 150 mM NaCl. DNA:PEI complexes were formed by 15 min incubation at room temperature then added to the cells and incubated at 37°C for 24 h prior to use. Cells were then washed and equilibrated in Hanks’ balanced salt solution for 1 h at 37°C. Coelenterazine h at a final concentration of 5 μM was added to each well, followed by addition of increasing concentrations of ACh in the absence or presence of increasing concentrations of each modulator. Lumines-cence and fluorescence signals were measured 5 min after agonist stimulation using the LUMIstar Omega plate reader (BMG LabTech, Offenburg, Germany). […] Data were then normalized to the maximum response to ACh.\nas §2"}, "[3]": {"details": "IP1 accumulation, antilog, in parentheses"}}, "data": [{"compound": "O=c1cc(-c2ccccc2OCc2ccc(-n3cccn3)nc2)ncn1C1CCCCC1O", "note": "(stereo not drawn) [Compound 27b, 6-(2-((6-(1H-Pyrazol-1-yl)pyridin-3-yl)methoxy)phenyl)-3-(2-hydroxycyclohexyl)pyrimidin-4(3H)-one]", "values": [{"measurement": "ΔpEC50 [1 μM]: change in ACh pEC50 in presence of M1 PAM compared to control curve", "setting": "hM1 mAChR [1]; 1 μM modulator, FlpIn CHO hM1 cells, mean ± SEM, 3 experiments", "result": "0.96±0.18"}, {"measurement": "activation at 1 µM", "setting": "hM1 mAChR [1]; 1 μM modulator, FlpIn CHO hM1 cells, mean ± SEM, 3 experiments, read-out: Δbaseline [1 μM]: change in basal response in presence of M1 PAM compared to control curve", "result": "38.5 ± 3.8", "unit": "%"}, {"measurement": "ΔpEC50 [10 μM]: change in ACh pEC50 in presence of M1 PAM compared to control curve", "setting": "hM1 mAChR [1]; 10 μM modulator, FlpIn CHO hM1 cells, mean ± SEM, 3 experiments", "result": "1.50±0.32"}, {"measurement": "activation at 10 µM", "setting": "hM1 mAChR [1]; 10 μM modulator, FlpIn CHO hM1 cells, mean ± SEM, 3 experiments, read-out: Δbaseline [10 μM]: change in basal response in presence of M1 PAM compared to control curve", "result": "78.6 ± 2.8", "unit": "%"}, {"measurement": "αβ (functional cooperativity with ACh)", "setting": "hM1 mAChR [1]; [3]", "result": 112}, {"measurement": "τB (intrinsic efficacy of the modulator)", "setting": "hM1 mAChR [1]; [3]", "result": 3}, {"measurement": "log τB (logarithm of intrinsic efficacy of the modulator)", "setting": "hM1 mAChR [1]; IP1 accumulation, operational model", "result": "0.54±0.04"}, {"measurement": "log αβ (logarithm of functional cooperativity between ACh and modulator)", "setting": "hM1 mAChR [1]; IP1 accumulation, operational model, pKB constrained to binding value", "result": "2.05±0.12"}, {"measurement": "Kb", "setting": "hM1 mAChR [2]; allosteric ternary complex model, mean ± SEM, read-out: pKB (negative logarithm of the allosteric modulator equilibrium dissociation constant) (converted)", "result": 15.8, "unit": "µM"}, {"measurement": "α (binding cooperativity with ACh)", "setting": "hM1 mAChR [2]; antilog, in parentheses", "result": 151}, {"measurement": "log αACh (logarithm of binding cooperativity between ACh and modulator)", "setting": "hM1 mAChR [2]; mean ± SEM", "result": "2.18±0.19"}, {"measurement": "αβ (functional cooperativity with ACh)", "setting": "M1 mAChR; antilog, in parentheses", "result": 56}, {"measurement": "τB (intrinsic efficacy of the modulator)", "setting": "M1 mAChR; antilog, in parentheses", "result": 0.4}, {"measurement": "log τB (logarithm of intrinsic efficacy of the modulator)", "setting": "M1 mAChR; operational model", "result": "–0.36±0.12"}, {"measurement": "log αβ (logarithm of functional cooperativity between ACh and modulator)", "setting": "M1 mAChR; operational model, pKB constrained to binding value", "result": "1.75±0.11"}]}]}
